A short description of this test: Inhibition of Saccharomyces cerevisiae ribonucleotide reductase.

We go through two substances from ChEMBL document CHEMBL1155831, “The structural basis for peptidomimetic inhibition of eukaryotic ribonucleotide reductase: a conformationally flexible pharmacophore” (J Med Chem, 2008).

Usually IC50 stands for the concentration that inhibits the measured activity by half. High values mean weaker potency in that assay, low ones greater potency in that assay. Substance H-FTFNEDF-OH showed an IC50 of 44 µM.

H-NFDDDF-OH displayed an IC50 of 30 µM.
